Literature values as cited in patent US20240261298A1, “METHODS OF TREATING DEPRESSION AND ANXIETY” (Woolsey Pharmaceuticals, Inc., priority 2021, published 2024).
Counter-ions that a name gives are not always drawn.

Key:
adult mice = settings: exposure to fasudil
[1] = 1 hydroxy (M3) metabolite, in vivo

SMILES	anxiety-like behaviors (adult mice)	half-life [1]
O=S(=O)(c1cccc2cnccc12)N1CCCNCC1 [Fasudil, Hexahydro-1-(5-isoquinolinesulfonyl)-1H-1,4-diazepine monohydrochloride hemihydrate]	induces anxiety-like behaviors	
O=S(=O)(c1cccc2c(O)nccc12)N1CCCNCC1 [M3]		about 8 hours
